Inconclusive results and toxic doses are left out. How the source made its calls: active means survival T/C of 150% or more; inactive means T/C below 125% in these data.
System: CD2F1 mice, L1210 leukemia ip, survival T/C
Assay: NCI In Vivo Anticancer Drug Screen. Data for tumor model L1210 Leukemia (intraperitoneal) in CD2F1 (CDF1) mice
Conditions: higher = longer survival
Method in brief: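 Implant tumor; dose compound or vehicle; measure endpoint in both groups; report treated divided by control.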

[1] = endpoint: mean survival time, dose: 100.0 mg/kg/injection, schedule: Q01DX009 (ip), vehicle: saline with Tween-80
[2] = endpoint: mean survival time, dose: 100.0 mg/kg/injection, schedule: Q04DX003 (ip), vehicle: saline with Tween-80
[3] = endpoint: mean survival time, dose: 200.0 mg/kg/injection, schedule: Q01DX009 (ip), vehicle: saline with Tween-80
[4] = endpoint: mean survival time, dose: 200.0 mg/kg/injection, schedule: Q04DX003 (ip), vehicle: saline with Tween-80
[5] = endpoint: mean survival time, dose: 400.0 mg/kg/injection, schedule: Q04DX003 (ip), vehicle: saline with Tween-80
[6] = endpoint: mean survival time, dose: 400.0 mg/kg/injection, schedule: Q01DX009 (ip), vehicle: saline with Tween-80

Measured: T/C

COc1ccc([Si](C)(C)CNCCSS(=O)(=O)O)cc1
inactive: endpoint: mean survival time, dose: 50.0 mg/kg/injection, schedule: Q01DX009 (ip), vehicle: saline with Tween-80 97 % of control | [1] 103 % of control | [2] 101 % of control | [3] 92 % of control | [4] 95 % of control

Cc1ccccc1CN1C2=NCCN2C(=O)C2=C1CCN(S(=O)(=O)c1ccc(Cl)c(S(N)(=O)=O)c1)C2
inactive: endpoint: median survival time, dose: 25.0 mg/kg/injection, schedule: Q01DX009 (ip), vehicle: saline 95 % of control | endpoint: median survival time, dose: 50.0 mg/kg/injection, schedule: Q01DX009 (ip), vehicle: saline 100 % of control | endpoint: median survival time, dose: 100.0 mg/kg/injection, schedule: Q01DX009 (ip), vehicle: saline 93 % of control | endpoint: median survival time, dose: 400.0 mg/kg/injection, schedule: Q01DX009 (ip), vehicle: saline 88 % of control

O=S(=O)(O)C1CCC[N-]C1.O=S(=O)(O)C1CCC[N-]C1.[Cl][Pt+2]([Cl])([Cl])[Cl] (stereo not drawn)
inactive: endpoint: mean survival time, dose: 12.5 mg/kg/injection, schedule: Q01DX009 (ip), vehicle: water 102 % of control | endpoint: mean survival time, dose: 25.0 mg/kg/injection, schedule: Q01DX009 (ip), vehicle: water 102 % of control | endpoint: mean survival time, dose: 50.0 mg/kg/injection, schedule: Q01DX009 (ip), vehicle: water 105 % of control | endpoint: mean survival time, dose: 100.0 mg/kg/injection, schedule: Q01DX009 (ip), vehicle: water 110 % of control

CC(=O)OCC(=O)[C@@]12OC(C)(C)O[C@@H]1C[C@H]1[C@@H]3CC(C=O)=C4C=C(OCCCl)CC[C@]4(C)[C@@]3(F)[C@@H](O)C[C@@]12C
inactive: endpoint: mean survival time, dose: 100.0 mg/kg/injection, schedule: Q04DX003 (ip), vehicle: acetone 103 % of control | endpoint: mean survival time, dose: 200.0 mg/kg/injection, schedule: Q04DX003 (ip), vehicle: acetone 105 % of control | endpoint: mean survival time, dose: 400.0 mg/kg/injection, schedule: Q04DX003 (ip), vehicle: acetone 102 % of control

O=C1OC(c2ccccc2)CC1N1CCCCC1 (stereo not drawn)
inactive: endpoint: mean survival time, dose: 6.25 mg/kg/injection, schedule: Q01DX009 (ip), vehicle: saline sonified 92 % of control | endpoint: mean survival time, dose: 12.5 mg/kg/injection, schedule: Q01DX009 (ip), vehicle: saline sonified 101 % of control | endpoint: mean survival time, dose: 25.0 mg/kg/injection, schedule: Q01DX009 (ip), vehicle: saline sonified 105 % of control

CSc1ncc(Br)c(C(=O)O)n1
inactive: [2] 96 % of control | [4] 96 % of control | [5] 93 % of control

c1cc(CSc2ncnc3nc[nH]c23)ccn1
inactive: endpoint: mean survival time, dose: 178.0 mg/kg/injection, schedule: Q01DX001 (ip), vehicle: saline 118 % of control | endpoint: mean survival time, dose: 267.0 mg/kg/injection, schedule: Q01DX001 (ip), vehicle: saline 115 % of control | endpoint: mean survival time, dose: 400.0 mg/kg/injection, schedule: Q01DX001 (ip), vehicle: saline 119 % of control

CC(C)C(NC1=NCCO1)c1ccccc1 (stereo not drawn)
inactive: endpoint: mean survival time, dose: 12.5 mg/kg/injection, schedule: Q04DX003 (ip), vehicle: saline with Tween-80 106 % of control | endpoint: mean survival time, dose: 25.0 mg/kg/injection, schedule: Q04DX003 (ip), vehicle: saline with Tween-80 98 % of control | endpoint: mean survival time, dose: 50.0 mg/kg/injection, schedule: Q04DX003 (ip), vehicle: saline with Tween-80 104 % of control

O=NN1CCOC1=NCCCl
inactive: endpoint: mean survival time, dose: 3.12 mg/kg/injection, schedule: Q01DX001 (ip), vehicle: water 100 % of control | endpoint: mean survival time, dose: 6.25 mg/kg/injection, schedule: Q01DX001 (ip), vehicle: water 96 % of control | endpoint: mean survival time, dose: 12.5 mg/kg/injection, schedule: Q01DX001 (ip), vehicle: water 94 % of control | endpoint: mean survival time, dose: 25.0 mg/kg/injection, schedule: Q01DX001 (ip), vehicle: water 96 % of control | endpoint: mean survival time, dose: 50.0 mg/kg/injection, schedule: Q01DX001 (ip), vehicle: water 96 % of control | endpoint: mean survival time, dose: 100.0 mg/kg/injection, schedule: Q01DX001 (ip), vehicle: water 102 % of control | endpoint: mean survival time, dose: 200.0 mg/kg/injection, schedule: Q01DX001 (ip), vehicle: water 122 % of control

O=C(CNC(=O)c1ccccc1)N/N=C/c1ccncc1
inactive: [1] 90 % of control | [6] 92 % of control

Cc1ccc(NC(=O)c2ccc(C(=O)Nc3ccc(C)cc3)cc2)cc1
inactive: [1] 98 % of control | [2] 87 % of control | [3] 88 % of control | [4] 97 % of control | [6] 93 % of control | [5] 86 % of control
